Source: PubChem BioAssay AID1259407 (Chemical Carcinogenesis Research Information System (CCRIS), 2018)
Active and inactive are the calls of the source. No rule for the calls is given here.

Test system: CCRIS mutagenicity, Ames/micronucleus/aberration tests
Assay: CCRIS mutagenicity studies
[1] = Test System: AMES SALMONELLA TYPHIMURIUM, Strain/Indicator: TA98, Metabolic Activation: NONE, Method: STANDARD PLATE
[2] = Test System: AMES SALMONELLA TYPHIMURIUM, Strain/Indicator: TA98, Metabolic Activation: RAT, LIVER, S-9, AROCLOR 1254, Method: STANDARD PLATE
[3] = Test System: AMES SALMONELLA TYPHIMURIUM, Strain/Indicator: TA100, Metabolic Activation: NONE, Method: STANDARD PLATE
[4] = Test System: AMES SALMONELLA TYPHIMURIUM, Strain/Indicator: TA100, Metabolic Activation: RAT, LIVER, S-9, AROCLOR 1254, Method: STANDARD PLATE

Question: For `C1CCC2OCCOCCOC3CCCCC3OCCOCCOC2C1` (configuration not stated), which mutagenic call [1] is on record?
Answer: inactive; negative

Question: What about the mutagenic call [2] of the same compound?
Answer: inactive; negative

Question: What about the mutagenic call [3] of the same compound?
Answer: inactive; negative

Question: What about the mutagenic call [4] of the same compound?
Answer: inactive; negative

Question: What about the mutagenic call (Test System: AMES SALMONELLA TYPHIMURIUM, Strain/Indicator: TA1530, Metabolic Activation: NONE, Method: STANDARD PLATE) of the same compound?
Answer: inactive; negative

Question: What about the mutagenic call (Test System: AMES SALMONELLA TYPHIMURIUM, Strain/Indicator: TA1530, Metabolic Activation: RAT, LIVER, S-9, AROCLOR 1254, Method: STANDARD PLATE) of the same compound?
Answer: inactive; negative

Question: What about the mutagenic call (Test System: AMES SALMONELLA TYPHIMURIUM, Strain/Indicator: TA1537, Metabolic Activation: NONE, Method: STANDARD PLATE) of the same compound?
Answer: inactive; negative

Question: What about the mutagenic call (Test System: AMES SALMONELLA TYPHIMURIUM, Strain/Indicator: TA1537, Metabolic Activation: RAT, LIVER, S-9, AROCLOR 1254, Method: STANDARD PLATE) of the same compound?
Answer: inactive; negative

Question: With `CC(=O)[O][Sn]([c]1ccccc1)([c]1ccccc1)[c]1ccccc1` as the compound, how does the mutagenic call (End Point: IN VIVO MICRONUCLEUS, Test System: BONE MARROW POLYCHROMATIC ERYTHROCYTES, Species: MOUSE, Strain/Sex: SWISS/MALE, FEMALE, Route: IP 2X IN AQUEOUS SUSPENSION WITHIN 24 HR) read?
Answer: active; positive

Question: For `NC(=O)CCC(=O)Nc1cc(Cl)c(Cl)c(Cl)c1`, which mutagenic call [1] is on record?
Answer: inactive; negative

Question: And the mutagenic call [2]?
Answer: inactive; negative

Question: And the mutagenic call [3]?
Answer: inactive; negative

Question: What about the mutagenic call [4] of the same compound?
Answer: inactive; negative

Question: `[Cl][Sn]([Cl])([Cl])[c]1ccccc1` was tested. Which mutagenic call (Test System: AMES SALMONELLA TYPHIMURIUM, Strain/Indicator: TA98, Metabolic Activation: NONE, Method: SUSPENSION/PLATE) did it give?
Answer: inactive; negative

Question: What about the mutagenic call (Test System: AMES SALMONELLA TYPHIMURIUM, Strain/Indicator: TA100, Metabolic Activation: NONE, Method: SUSPENSION/PLATE) of the same compound?
Answer: inactive; negative

Question: How did the mutagenic call (Test System: AMES SALMONELLA TYPHIMURIUM, Strain/Indicator: TA100, Metabolic Activation: RAT, LIVER, S-9, PCB, Method: PREINCUBATION) turn out when `[N-]=[N+]=NC[C@H](CO)Cc1ccccc1` was run?
Answer: active; positive

Question: For `COc1c(O)cc2c3c1-c1ccccc1C[C@H]3N(C)CC2`, which mutagenic call (Test System: AMES SALMONELLA TYPHIMURIUM, Strain/Indicator: TA98, Metabolic Activation: RAT, LIVER, S-9, PHENOBARBITAL AND BETA-NAPHTHOFLAVONE, Method: PREINCUBATION) is on record?
Answer: active; positive

Question: What about the mutagenic call (Test System: AMES SALMONELLA TYPHIMURIUM, Strain/Indicator: TA100, Metabolic Activation: RAT, LIVER, S-9, PHENOBARBITAL AND BETA-NAPHTHOFLAVONE, Method: PREINCUBATION) of the same compound?
Answer: active; positive

Question: For `O=[N+]([O-])c1cc2c3c(cccc3c1)-c1ccccc1-2`, which mutagenic call (Test System: AMES SALMONELLA TYPHIMURIUM, Strain/Indicator: TA98(1,8-DNP6), Metabolic Activation: NONE, Method: STANDARD PLATE) is on record?
Answer: inactive; negative

Question: What about the mutagenic call (Test System: AMES SALMONELLA TYPHIMURIUM, Strain/Indicator: TA98(NR), Metabolic Activation: NONE, Method: STANDARD PLATE) of the same compound?
Answer: inactive; negative

Question: What about the mutagenic call [1] of the same compound?
Answer: active; positive

Question: And the mutagenic call (Test System: AMES SALMONELLA TYPHIMURIUM, Strain/Indicator: TA7001, Metabolic Activation: NONE, Method: PREINCUBATION)?
Answer: inactive; negative

Question: And the mutagenic call (Test System: AMES SALMONELLA TYPHIMURIUM, Strain/Indicator: TA7002, Metabolic Activation: NONE, Method: PREINCUBATION)?
Answer: active; positive

Question: And the mutagenic call (Test System: AMES SALMONELLA TYPHIMURIUM, Strain/Indicator: TA7003, Metabolic Activation: NONE, Method: PREINCUBATION)?
Answer: inactive; negative

Question: What about the mutagenic call (Test System: AMES SALMONELLA TYPHIMURIUM, Strain/Indicator: TA7004, Metabolic Activation: NONE, Method: PREINCUBATION) of the same compound?
Answer: active; positive

Question: What about the mutagenic call (Test System: AMES SALMONELLA TYPHIMURIUM, Strain/Indicator: TA7005, Metabolic Activation: NONE, Method: PREINCUBATION) of the same compound?
Answer: active; positive

Question: And the mutagenic call (Test System: AMES SALMONELLA TYPHIMURIUM, Strain/Indicator: TA7006, Metabolic Activation: NONE, Method: PREINCUBATION)?
Answer: active; positive

Question: `O[C@H]1[C@H]2O[C@H]2c2c(ccc3cc4c(ccc5ccccc54)nc23)[C@@H]1O` was tested. Which mutagenic call (Test System: AMES SALMONELLA TYPHIMURIUM, Strain/Indicator: TA98, Metabolic Activation: NONE, Method: PREINCUBATION) did it give?
Answer: active; positive

Question: And the mutagenic call (Test System: AMES SALMONELLA TYPHIMURIUM, Strain/Indicator: TA100, Metabolic Activation: NONE, Method: PREINCUBATION)?
Answer: active; positive

Question: What about the mutagenic call (Test System: CHINESE HAMSTER V-79, Strain/Indicator: V-79/8-AZAGUANINE, Metabolic Activation: NONE) of the same compound?
Answer: active; positive

Question: For `C=CCNC1=C2C[C@@H](C)C[C@H](OC)[C@H](O)[C@@H](C)/C=C(\C)[C@H](OC(N)=O)[C@@H](OC)/C=C\C=C(/C)C(=O)NC(=CC1=O)C2=O`, which mutagenic call (Test System: Mouse lymphoma, Strain/Indicator: L5178Y (tk+/tk-), Metabolic Activation: None, Method: Suspension/plate) is on record?
Answer: active; positive

Question: What about the mutagenic call (Test System: Mouse lymphoma, Strain/Indicator: L5178Y (tk+/tk-), Metabolic Activation: Rat, Liver, S-9, Aroclor 1254, Method: Suspension/plate) of the same compound?
Answer: inactive; negative

Question: With `O[C@H]1C=Cc2c(ccc3cc4c(cc23)[C@H](O)[C@@H](O)c2ccccc2-4)[C@@H]1O` as the compound, how does the mutagenic call [4] read?
Answer: inactive; negative

Question: For `c1ccc2cc3c(ccc4cccnc43)cc2c1`, which mutagenic call [1] is on record?
Answer: inactive; negative

Question: And the mutagenic call [2]?
Answer: active; positive

Question: What about the mutagenic call [3] of the same compound?
Answer: inactive; negative

Question: What about the mutagenic call [4] of the same compound?
Answer: inactive; negative
